Patent publication US7863446B2, “Heterocycles” (Orchid Research Laboratories Limited, priority 2006, dated 2011)

How the values were obtained:
[1] = test system: IL-6; experiment: In vitro measurement of IL-6 in human PBMC (LPS stimulated); type: cell-based
How it was run: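 Human PBMC (0.5 million/well) pre-incubated with compound 15 min at 37 °C, then stimulated with E. coli LPS (1 μg/ml) for 18 h at 37 °C, 5% CO2. IL-6 in culture medium quantified by ELISA.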

[2] = test system: TNF-α; experiment: LPS induced sepsis for measurement of TNF-α inhibition in mice; type: in vivo; conditions: 50 mg/kg, oral, mice, serum 90 minutes after LPS
Experimental: LPS Induced Sepsis for Measurement of TNF-α Inhibition in Mice
The LPS induced sepsis model in mice was performed as described by Les sekut et al (J Lab Clin Med 1994; 124:813-20). Female Swiss albino mice were selected and the body weights were equivalent within each group. The mice were fasted for 20 hours with free access to water. The mice were dosed orally with the test compound suspended in vehicle containing 0.5% Tween 80 in 0.25% Carboxy-methylcellulose sodium salt. The control mice were administered the vehicle alone. After 30 minutes of oral dosing, mice were injected with 500 μg of Lipopolysaccharide (Escherichia coli, LPS: B4 from Siga) in phosphate buffer saline solution into the intraperitoneal cavity of the mice. After 90 minutes of LPS administration mice were bled via retro-orbital sinus puncture. Blood samples were stored overnight at 4° C. Serum samples were collected by centrifuging the samples at 4000 rpm for 15 minutes at 4° C. Immediately the serum samples were analysed for TNF-α levels using commercially available mouse TNF-α ELISA kit (Amersham Biosciences) and assay was performed by the manufacturer instruction.
ED50 Measurement of TNF alpha Inhibition in Mice Sepsis Model

[3] = test system: DU-145; experiment: Anti-cancer screen (MTT), DU-145; type: cell-based; conditions: Homo sapiens, DU-145, 48 hours
[4] = test system: NCI-H460; experiment: Anti-cancer screen (MTT), NCI-H460; type: cell-based; conditions: Homo sapiens, NCI-H460, 48 hours
Experimental: Experimental drugs are screened for anti-cancer activity in three cell lines for their GI50, TG1 and LC50 values (using 5 concentrations for each compound). The cell lines are maintained in DMEM containing 10% fetal bovine serum. 96 well microtiter plates are inoculated with cells in […] for 24 hours at 37° C., 5% CO2, 95% air and 100% relative humidity. 5000 HCT116 cells/well, 5000 NCIH460 cells/well, 10000 U251 cells/well and 5000 MDAMB231 cells/well are plated. A separate plate with these cell lines is also inoculated to determine cell viability before the addition of the compounds (T0).
Addition of Experimental Drugs
Following 24-hour incubation, experimental drugs are added to the 96 well plates. Each plate contains one of the above cell lines and the following in triplicate: 5 different concentrations (0.01, 0.1, 1, 10 and 100 μM) of 4 different compounds, appropriate dilutions of a cytotoxic standard and control (untreated) wells. Compounds are dissolved in dimethylsulfoxide (DMSO) to make 20 mM stock solutions, on the day of drug addition and frozen at −20° C. Serial dilutions of these 20 mM stock solutions are made in complete growth medium such that 100 μL of these drug solutions in medium, of final concentrations equaling 0.01, 0.1, 1, 10 and 100 μM can be added to the cells in triplicate. Standard drugs whose anti-cancer activity has been well documented and which are regularly used are doxorubicin and SAHA.
Cells are incubated with compounds for 48 hours followed by the addition of 10 μL 3-(4,5-Dimethyl-2-thiazolyl)-2,5-diphenyl-2H-tetrazolium (MTT) solution per well and a subsequent incubation at 37° C., 5% CO2, 95% air and 100% relative humidity, protected from light. After 4 hours, well contents are aspirated carefully followed by addition of 150 μL DMSO per well. Plates are agitated to ensure solution of the formazan crystals in DMSO and absorbance read at 570 nm.
Calculation of GI50, TGI and LC50
Percent growth is calculated for each compound's concentration relative to the control and zero measurement wells (T0; viability right before compound addition).
If a test well's O.D. value is greater than the T0 measurement for that cell line % Growth=(test−zero)/(control−zero)×100
If a test well's O.D. value is lower than the T0 measurement for that cell line, then % Growth=(test−zero)/zero×100 Plotting % growth versus experimental drug concentration, GI50 is the concentration required to decrease % growth by 50%; TGI is the concentration required to decrease % growth by 100% and LC50 is the concentration required to decrease % growth by 150%.

GI50 [3]: 1.93 µM
GI50 [4]: 1.65 µM
melting point: 226 to 230 °C
Compound: CNS(=O)(=O)c1ccc(-c2c(Cl)nc(C(F)(F)F)nc2-c2ccc(S(C)(=O)=O)cc2)cc1 [Example 4, 4-{4-Chloro-6-[4-(methylsulfonyl)phenyl]-2-(trifluoromethyl)pyrimidin-5-yl}-N-methylbenzenesulfonamide]
inhibition at 1 µM ([1]; 1 μM, read-out: IL-6 Inhibition (%) Conc. (1 μM)): 27.2%
inhibition at 10 µM ([1]; 10 μM, read-out: IL-6 Inhibition (%) Conc. (10 μM)): 100%
TNF-α Inhibition (%) at 50 mg/kg [2]: 38.37%
